Some test systems named below: CAKI-1 renal; HT29 colon; K-562 leukemia; NCI-H460 lung; OVCAR-3 ovarian; OVCAR-5 ovarian; SF-268 CNS; UACC-62 melanoma; DU-145 prostate; MDA-MB-231 breast.
Common to all, as to assay: growth of human tumour cells (NCI), 48 h

In PubChem BioAssay (NCI) one finds TGI and GI50 data, which are given here for 18 compounds.

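These data come from cells grown in 96-well plates and exposed to compound for 48 hours at five concentrations. GI50 = concentration required for 50% inhibition of growth. TGI denotes the concentration required for complete inhibition of growth.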 A value given as a limit tells only on which side of the number the result lay.

Regarding `COc1ccc(C(=O)Cc2cc(OC)ccc2OC)cc1`, the TGI in the test with CAKI-1 renal, in the test with HT29 colon, in the test on K-562 leukemia, with NCI-H460 lung, in the test with OVCAR-3 ovarian and with OVCAR-5 ovarian was above 100 µM each time. The TGI in the test on SF-268 CNS and in the test on UACC-62 melanoma was above 100 µM in each case.

In the case of `C=C1C(=O)O[C@H]2C1[C@H](OC(=O)/C(C)=C\COC(C)=O)C[C@]1(CO1)[C@@H]1[C@H](O)[C@H]3O[C@@]3(C)[C@@H]12` (stereo not given in full), the TGI in the test with CAKI-1 renal was 31.5 µM; in the test with HT29 colon, 40.8 µM; in the test on K-562 leukemia it was 27 µM; in the test on NCI-H460 lung, above 100 µM; in the test on OVCAR-3 ovarian, 44.8 µM; with OVCAR-5 ovarian it was above 100 µM. The TGI in the test on SF-268 CNS was determined as 49.7 µM; in the test on UACC-62 melanoma it was 30.4 µM.

As for `COc1ccc(CNc2nc(NCc3ccc(OC)cc3)nc(NC3CCCCC3)n2)cc1`, the TGI is 4.86 µM with CAKI-1 renal; 6.88 µM in the test with DU-145 prostate; above 100 µM in the test with HT29 colon; above 100 µM in the test on K-562 leukemia; 7.73 µM with MDA-MB-231 breast; 7.78 µM in the test on NCI-H460 lung. For the same compound, the TGI in the test with OVCAR-3 ovarian was 6.24 µM; in the test with OVCAR-5 ovarian it was above 100 µM; in the test on SF-268 CNS, 6.5 µM; with UACC-62 melanoma it was 9.41 µM.

For the compound `COc1ccc(/C=N/Nc2[nH]c(=S)nc3[nH]ncc23)cc1`, the TGI in the test with CAKI-1 renal, in the test with DU-145 prostate, in the test with HT29 colon, with K-562 leukemia, in the test with MDA-MB-231 breast and with NCI-H460 lung was above 100 µM each time. Besides, the TGI in the test on OVCAR-3 ovarian, with OVCAR-5 ovarian, in the test with SF-268 CNS and in the test with UACC-62 melanoma was above 100 µM each time.

Regarding `CN(C)CCCn1c2ccccc2c2cnccc21`, the TGI in the test on CAKI-1 renal was above 100 µM; in the test with DU-145 prostate, above 100 µM; in the test on HT29 colon, above 100 µM; with K-562 leukemia, above 100 µM; in the test with MDA-MB-231 breast, above 100 µM; in the test on NCI-H460 lung it was 67 µM. Also, the TGI in the test with OVCAR-3 ovarian, in the test with OVCAR-5 ovarian, in the test on SF-268 CNS and in the test with UACC-62 melanoma was above 100 µM each time.

Take `Cc1cc(NS(=O)(=O)c2ccc(Nc3c4ccccc4nc4c(C(=O)NCCN(C)C)ccc(Cl)c34)cc2)no1`: the TGI came out at 14.4 µM in the test on HT29 colon; 21.2 µM with K-562 leukemia; 11.4 µM with NCI-H460 lung; 23.9 µM in the test with OVCAR-3 ovarian; 28.5 µM in the test with OVCAR-5 ovarian; 15.3 µM in the test with SF-268 CNS. For the same compound, the TGI in the test with UACC-62 melanoma worked out at 10.4 µM.

For `Cc1ncc([N+](=O)[O-])n1CCN=[N+]=[N-]`, the TGI in the test on CAKI-1 renal, in the test with DU-145 prostate, in the test on HT29 colon, with K-562 leukemia, with MDA-MB-231 breast and with NCI-H460 lung was above 100 µM each time. For the same compound, the TGI with OVCAR-3 ovarian, in the test on OVCAR-5 ovarian, in the test with SF-268 CNS and in the test with UACC-62 melanoma was above 100 µM in each case.

With `CCOC(=O)c1c2c(n(C)c1-c1ccccc1)C(=O)C(C)=CC2=O`, the TGI in the test with CAKI-1 renal was 28.1 µM; in the test on DU-145 prostate, 35.2 µM; in the test with HT29 colon it was 35.1 µM; in the test on K-562 leukemia it was above 33.2 µM; in the test on MDA-MB-231 breast, 4.62 µM; with NCI-H460 lung, 47.8 µM. Moreover, the TGI in the test with OVCAR-3 ovarian was 8.17 µM; with OVCAR-5 ovarian it was 19.6 µM; with SF-268 CNS, 23.1 µM; in the test on UACC-62 melanoma, 23.9 µM.

For the compound `O=S1(=O)NNC(=NCc2ccc(F)cc2)c2ccccc21`, the TGI in the test on CAKI-1 renal was above 100 µM; in the test on DU-145 prostate, above 100 µM; in the test on HT29 colon it was above 100 µM; with K-562 leukemia it was above 73.1 µM; in the test on MDA-MB-231 breast, above 100 µM; in the test on NCI-H460 lung, above 31.6 µM. Also, the TGI in the test on OVCAR-3 ovarian, in the test with OVCAR-5 ovarian, with SF-268 CNS and in the test on UACC-62 melanoma was above 100 µM in each case.

Take `COc1cn2c(cc1=O)COc1ccc(-c3ccccc3)cc1-2`: the TGI with CAKI-1 renal, with DU-145 prostate, in the test on HT29 colon, in the test with K-562 leukemia, in the test with MDA-MB-231 breast and with NCI-H460 lung was above 100 µM throughout. For the same compound, the TGI in the test with OVCAR-3 ovarian was 98.8 µM; in the test on OVCAR-5 ovarian, above 100 µM; with SF-268 CNS it was above 100 µM; in the test with UACC-62 melanoma, above 100 µM. In addition, in the test with MDA-MB-231 breast, the GI50 was above 100 µM.

Take `CC(C)(C)OC(=O)NC(Cc1ccccc1)C(=O)N[C@H]1c2ccsc2/C(=N/O)[C@H]1O` (stereo not given in full): the TGI with CAKI-1 renal, in the test on DU-145 prostate, in the test with HT29 colon, in the test on K-562 leukemia, in the test with MDA-MB-231 breast and in the test with NCI-H460 lung was above 100 µM each time. In addition, the TGI in the test on OVCAR-3 ovarian, in the test on OVCAR-5 ovarian and in the test on UACC-62 melanoma was above 100 µM in each case.

For `COc1cc(S(=O)(=O)Nc2nc(-c3ccc(N4C(=O)/C(=C/c5ccccc5)N=C4c4ccccc4)cc3)cs2)ccc1Cl`, the TGI with CAKI-1 renal was above 100 µM; in the test with DU-145 prostate it was above 100 µM; in the test on HT29 colon it was above 100 µM; in the test on K-562 leukemia it was above 100 µM; in the test with MDA-MB-231 breast it was 70.1 µM; in the test on NCI-H460 lung, above 100 µM. Further, the TGI in the test with OVCAR-3 ovarian was above 100 µM; in the test on OVCAR-5 ovarian, above 100 µM; with SF-268 CNS, above 100 µM; in the test on UACC-62 melanoma, 50.8 µM.

In the case of `CC(C)=CCN(N=O)c1ncnc2nc[nH]c12`, the TGI with CAKI-1 renal, in the test with DU-145 prostate, in the test with HT29 colon, in the test on K-562 leukemia, in the test with MDA-MB-231 breast and with NCI-H460 lung was above 100 µM each time. For the same compound, the TGI in the test with OVCAR-3 ovarian, in the test with OVCAR-5 ovarian and in the test with SF-268 CNS was above 100 µM in each case.

With `CCCCc1ccc2[n+](c1)C(C(=O)OCC)=PC2` (stereo not given), the TGI in the test on CAKI-1 renal, in the test on DU-145 prostate, in the test with HT29 colon, in the test on NCI-H460 lung, in the test with OVCAR-3 ovarian and in the test with OVCAR-5 ovarian was above 100 µM in each case. Also, the TGI in the test on SF-268 CNS and with UACC-62 melanoma was above 100 µM each time.

As for `O=C1c2ccccc2-c2ccc(NC(=O)C3CCCCC3C(=O)O)cc21` (stereo not given), the TGI in the test with CAKI-1 renal, in the test on DU-145 prostate, in the test on HT29 colon, with K-562 leukemia, in the test with MDA-MB-231 breast and with NCI-H460 lung was above 100 µM in each case. Moreover, the TGI with OVCAR-3 ovarian, in the test on OVCAR-5 ovarian, in the test on SF-268 CNS and with UACC-62 melanoma was above 100 µM each time.

As for `COc1cc(C2C(Cl)C(=O)N2c2ccc(Br)cc2)cc(I)c1O` (stereo not given), the TGI in the test on CAKI-1 renal, in the test with DU-145 prostate, with HT29 colon, in the test on K-562 leukemia, in the test on MDA-MB-231 breast and in the test with NCI-H460 lung was above 100 µM in each case. For the same compound, the TGI in the test with OVCAR-3 ovarian, in the test on OVCAR-5 ovarian, with SF-268 CNS and in the test on UACC-62 melanoma was above 100 µM throughout.

As for `COc1cc(N=Nc2cccc(S(=O)(=O)O)c2)c(C)cc1N=Nc1ccc(/C=C/c2ccc(N=[N+]([O-])c3ccc(/C=C/c4ccc(N=Nc5cc(C)c(N=Nc6cccc(S(=O)(=O)O)c6)cc5OC)cc4)c(S(=O)(=O)O)c3)cc2S(=O)(=O)O)cc1`, the TGI with HT29 colon, with K-562 leukemia, with NCI-H460 lung, with OVCAR-3 ovarian, in the test on OVCAR-5 ovarian and in the test with SF-268 CNS was above 100 µM in each case. Also, the TGI in the test with UACC-62 melanoma was above 100 µM.

Take `COc1ccccc1C1C(C#N)=C(N)OC2=C1C(=O)CCC2` (stereo not given): the GI50 was above 100 µM in the test on CAKI-1 renal; above 100 µM in the test on DU-145 prostate; above 100 µM in the test on HT29 colon; above 100 µM in the test on K-562 leukemia; 16.2 µM with MDA-MB-231 breast; above 100 µM in the test on NCI-H460 lung. Also, the GI50 with OVCAR-3 ovarian, with OVCAR-5 ovarian and with SF-268 CNS was above 100 µM in each case. The TGI in the test on CAKI-1 renal, with DU-145 prostate, in the test with HT29 colon, in the test on K-562 leukemia, with MDA-MB-231 breast and in the test with NCI-H460 lung was above 100 µM each time. Besides, the TGI in the test with OVCAR-3 ovarian, in the test on OVCAR-5 ovarian and with SF-268 CNS was above 100 µM throughout.
